Test results from patent publication US10028966B2 (Avalyn Pharma Inc., priority 2014, dated 2018).

Assay: Aerosol tolerability analysis of low concentration dosage forms
Design: key to Throat Irritation: 1 = none; 5 = strong
Source text: Additional observations include maintaining osmolality between about 250 to about 500 mOsmo/kg. The tolerability for formulations with an osmolalty outside this range may be adjusted with modifications in the above formulation parameters and device output and aerosol particle size characteristics.

**Q.** Which “Est. Osmolality” value (citrate 5 mM, MgCl2 130 mM, saccharin 0.5 mM, pH 5.5, pirfenidone 16 mg/mL) does the source give for `Cc1ccc(=O)n(-c2ccccc2)c1` [pirfenidone, 5-methyl-1-phenyl-2-(1H)-pyridone] here?
**A.** 490 mOsmo/Kg

**Q.** And the “Throat Irritation” value (citrate 5 mM, MgCl2 130 mM, saccharin 0.5 mM, pH 5.5, pirfenidone 16 mg/mL, 3.7 micron)?
**A.** 2

**Q.** What about the “Est. Osmolality” value (citrate 5 mM, NaCl 100 mM, MgCl2 43.3 mM, pH 5.5, pirfenidone 16 mg/mL) of the same compound?
**A.** 430 mOsmo/Kg

**Q.** And the “Throat Irritation” value (citrate 5 mM, NaCl 100 mM, MgCl2 43.3 mM, pH 5.5, pirfenidone 16 mg/mL, 3.7 micron)?
**A.** 3

**Q.** What about the “Est. Osmolality” value (citrate 5 mM, NaCl 100 mM, MgCl2 43.3 mM, saccharin 0.6 mM, pH 5.5, pirfenidone 16 mg/mL) of the same compound?
**A.** 430 mOsmo/Kg

**Q.** What about the “Throat Irritation” value (citrate 5 mM, NaCl 100 mM, MgCl2 43.3 mM, saccharin 0.6 mM, pH 5.5, pirfenidone 16 mg/mL, 3.7 micron) of the same compound?
**A.** 2

**Q.** What about the “Est. Osmolality” value (citrate 5 mM, NaCl 100 mM, pH 5.5, pirfenidone 4 mg/mL) of the same compound?
**A.** 270 mOsmo/Kg

**Q.** What about the “Throat Irritation” value (citrate 5 mM, NaCl 100 mM, pH 5.5, pirfenidone 4 mg/mL, 3.2 micron) of the same compound?
**A.** 2

**Q.** And the “Est. Osmolality” value (citrate 5 mM, NaCl 100 mM, pH 5.5, pirfenidone 16 mg/mL (3.2 micron entry))?
**A.** 400 mOsmo/Kg

**Q.** What about the “Est. Osmolality” value (citrate 5 mM, NaCl 100 mM, pH 5.5, pirfenidone 16 mg/mL (first 3.7 micron entry)) of the same compound?
**A.** 400 mOsmo/Kg

**Q.** And the “Est. Osmolality” value (citrate 5 mM, NaCl 100 mM, pH 5.5, pirfenidone 16 mg/mL (second 3.7 micron entry))?
**A.** 400 mOsmo/Kg

**Q.** And the “Throat Irritation” value (citrate 5 mM, NaCl 100 mM, pH 5.5, pirfenidone 16 mg/mL, 3.2 micron)?
**A.** 2

**Q.** What about the “Throat Irritation” value (citrate 5 mM, NaCl 100 mM, pH 5.5, pirfenidone 16 mg/mL, 3.7 micron (first entry)) of the same compound?
**A.** 3

**Q.** And the “Throat Irritation” value (citrate 5 mM, NaCl 100 mM, pH 5.5, pirfenidone 16 mg/mL, 3.7 micron (second entry))?
**A.** 3

**Q.** And the “Est. Osmolality” value (citrate 5 mM, NaCl 100 mM, saccharin 0.3 mM, pH 5.5, pirfenidone 4 mg/mL)?
**A.** 270 mOsmo/Kg

**Q.** What about the “Throat Irritation” value (citrate 5 mM, NaCl 100 mM, saccharin 0.3 mM, pH 5.5, pirfenidone 4 mg/mL, 3.7 micron) of the same compound?
**A.** 2

**Q.** What about the “Est. Osmolality” value (citrate 5 mM, NaCl 100 mM, saccharin 0.7 mM, pH 5.5, pirfenidone 16 mg/mL (3.2 micron entry)) of the same compound?
**A.** 400 mOsmo/Kg

**Q.** What about the “Est. Osmolality” value (citrate 5 mM, NaCl 100 mM, saccharin 0.7 mM, pH 5.5, pirfenidone 16 mg/mL (3.7 micron entry)) of the same compound?
**A.** 400 mOsmo/Kg

**Q.** What about the “Est. Osmolality” value (citrate 5 mM, NaCl 100 mM, saccharin 0.7 mM, pH 5.5, pirfenidone 16 mg/mL (4.6 micron entry)) of the same compound?
**A.** 400 mOsmo/Kg

**Q.** And the “Throat Irritation” value (citrate 5 mM, NaCl 100 mM, saccharin 0.7 mM, pH 5.5, pirfenidone 16 mg/mL, 3.2 micron)?
**A.** 3

**Q.** What about the “Throat Irritation” value (citrate 5 mM, NaCl 100 mM, saccharin 0.7 mM, pH 5.5, pirfenidone 16 mg/mL, 3.7 micron) of the same compound?
**A.** 2

**Q.** And the “Throat Irritation” value (citrate 5 mM, NaCl 100 mM, saccharin 0.7 mM, pH 5.5, pirfenidone 16 mg/mL, 4.6 micron (slower output device ~0.5 mL/minute))?
**A.** 1

**Q.** What about the “Est. Osmolality” value (citrate 5 mM, NaCl 100 mM, saccharin 0.9 mM, pH 5.5, pirfenidone 16 mg/mL (3.2 micron entry)) of the same compound?
**A.** 400 mOsmo/Kg

**Q.** What about the “Est. Osmolality” value (citrate 5 mM, NaCl 100 mM, saccharin 0.9 mM, pH 5.5, pirfenidone 16 mg/mL (3.7 micron entry)) of the same compound?
**A.** 400 mOsmo/Kg

**Q.** What about the “Throat Irritation” value (citrate 5 mM, NaCl 100 mM, saccharin 0.9 mM, pH 5.5, pirfenidone 16 mg/mL, 3.2 micron) of the same compound?
**A.** 1

**Q.** What about the “Throat Irritation” value (citrate 5 mM, NaCl 100 mM, saccharin 0.9 mM, pH 5.5, pirfenidone 16 mg/mL, 3.7 micron) of the same compound?
**A.** 2

**Q.** And the “Est. Osmolality” value (citrate 5 mM, NaCl 150 mM, pH 5.5, pirfenidone 4 mg/mL (3.2 micron entry))?
**A.** 330 mOsmo/Kg

**Q.** And the “Est. Osmolality” value (citrate 5 mM, NaCl 150 mM, pH 5.5, pirfenidone 4 mg/mL (3.7 micron entry))?
**A.** 330 mOsmo/Kg

**Q.** What about the “Throat Irritation” value (citrate 5 mM, NaCl 150 mM, pH 5.5, pirfenidone 4 mg/mL, 3.2 micron) of the same compound?
**A.** 1

**Q.** What about the “Throat Irritation” value (citrate 5 mM, NaCl 150 mM, pH 5.5, pirfenidone 4 mg/mL, 3.7 micron) of the same compound?
**A.** 2

**Q.** And the “Est. Osmolality” value (citrate 5 mM, NaCl 150 mM, pH 5.5, pirfenidone 16 mg/mL)?
**A.** 400 mOsmo/Kg

**Q.** And the “Throat Irritation” value (citrate 5 mM, NaCl 150 mM, pH 5.5, pirfenidone 16 mg/mL, 3.7 micron)?
**A.** 4

**Q.** And the “Est. Osmolality” value (citrate 5 mM, NaCl 150 mM, saccharin 0.2 mM, pH 5.5, pirfenidone 4 mg/mL)?
**A.** 330 mOsmo/Kg

**Q.** And the “Throat Irritation” value (citrate 5 mM, NaCl 150 mM, saccharin 0.2 mM, pH 5.5, pirfenidone 4 mg/mL, 3.7 micron)?
**A.** 2

**Q.** What about the “Est. Osmolality” value (citrate 5 mM, NaCl 150 mM, saccharin 0.3 mM, pH 5.5, pirfenidone 4 mg/mL) of the same compound?
**A.** 330 mOsmo/Kg

**Q.** What about the “Throat Irritation” value (citrate 5 mM, NaCl 150 mM, saccharin 0.3 mM, pH 5.5, pirfenidone 4 mg/mL, 3.7 micron) of the same compound?
**A.** 1

**Q.** And the “Est. Osmolality” value (citrate 5 mM, NaCl 150 mM, saccharin 0.5 mM, pH 5.5, pirfenidone 16 mg/mL)?
**A.** 400 mOsmo/Kg

**Q.** And the “Throat Irritation” value (citrate 5 mM, NaCl 150 mM, saccharin 0.5 mM, pH 5.5, pirfenidone 16 mg/mL, 3.7 micron)?
**A.** 1

**Q.** What about the “Est. Osmolality” value (citrate 5 mM, NaCl 150 mM, saccharin 0.9 mM, pH 5.5, pirfenidone 16 mg/mL) of the same compound?
**A.** 400 mOsmo/Kg

**Q.** And the “Throat Irritation” value (citrate 5 mM, NaCl 150 mM, saccharin 0.9 mM, pH 5.5, pirfenidone 16 mg/mL, 3.7 micron)?
**A.** 1

**Q.** And the “Est. Osmolality” value (no buffer, NaCl 150 mM, pH ND, pirfenidone 16 mg/mL)?
**A.** 375 mOsmo/Kg

**Q.** What about the “Throat Irritation” value (no buffer, NaCl 150 mM, pH ND, pirfenidone 16 mg/mL, 3.2 micron) of the same compound?
**A.** 5

**Q.** And the “Est. Osmolality” value (no buffer, NaCl 150 mM, saccharin 0.7 mM, pH ND, pirfenidone 16 mg/mL)?
**A.** 375 mOsmo/Kg

**Q.** What about the “Throat Irritation” value (no buffer, NaCl 150 mM, saccharin 0.7 mM, pH ND, pirfenidone 16 mg/mL, 3.2 micron) of the same compound?
**A.** 5

**Q.** What about the “Est. Osmolality” value (phosphate 5 mM, MgCl2 43.3 mM, pH 7, pirfenidone 16 mg/mL) of the same compound?
**A.** 210 mOsmo/Kg

**Q.** What about the “Throat Irritation” value (phosphate 5 mM, MgCl2 43.3 mM, pH 7, pirfenidone 16 mg/mL, 3.7 micron) of the same compound?
**A.** 5

**Q.** And the “Est. Osmolality” value (phosphate 5 mM, MgCl2 43.3 mM, saccharin 0.5 mM, pH 7, pirfenidone 16 mg/mL)?
**A.** 210 mOsmo/Kg

**Q.** What about the “Throat Irritation” value (phosphate 5 mM, MgCl2 43.3 mM, saccharin 0.5 mM, pH 7, pirfenidone 16 mg/mL, 3.7 micron) of the same compound?
**A.** 5

**Q.** What about the “Est. Osmolality” value (phosphate 5 mM, NaCl 50 mM, MgCl2 43.3 mM, pH 7, pirfenidone 16 mg/mL) of the same compound?
**A.** 310 mOsmo/Kg

**Q.** And the “Throat Irritation” value (phosphate 5 mM, NaCl 50 mM, MgCl2 43.3 mM, pH 7, pirfenidone 16 mg/mL, 3.7 micron)?
**A.** 4

**Q.** What about the “Est. Osmolality” value (phosphate 5 mM, NaCl 50 mM, pH 7, pirfenidone 16 mg/mL) of the same compound?
**A.** 200 mOsmo/Kg

**Q.** And the “Throat Irritation” value (phosphate 5 mM, NaCl 50 mM, pH 7, pirfenidone 16 mg/mL, 3.7 micron)?
**A.** 5

**Q.** What about the “Est. Osmolality” value (phosphate 5 mM, NaCl 150 mM, pH 7, pirfenidone 16 mg/mL) of the same compound?
**A.** 400 mOsmo/Kg

**Q.** And the “Throat Irritation” value (phosphate 5 mM, NaCl 150 mM, pH 7, pirfenidone 16 mg/mL, 3.7 micron)?
**A.** 3
